Like-named read-outs stand apart in the source and are kept apart here.
Key:
[1] = target: Recombinant ZIKV NS5 protein (ZIKV RdRp) (Zika virus, UniProt A0A024B7W1); experiment: Primer extension polymerase activity assay; assay type: biochemical; settings: RNA P/T, then ATP, GTP, CTP, UTP 100 μM each, 30°C 2 h; 3′-dATP 100 μM, HMTU-TP 0.025-1.6 mM
Experimental: To generate RNA primer-template complexes (RNA P/T), 0.5 μM fluorescently labeled RNA primer and 2 μM unlabeled RNA template were mixed in 50 mM NaCl, incubated at 95°C for 10 min, and then slowly cooled down to room temperature. The annealed RNA P/T was stored at -30°C before use in the primer extension assay.
The primer extension assay was performed according to a previous report ([Lu et al., 2017]). For analysis of the competitive inhibition ability of HMTU-TP, 200 nM of recombinant ZIKV NS5 (Sino Biological) and 50 nM RNA P/T were incubated 30°C for 15 min in reaction buffer [10 mM Tris-HCl (pH 7.5), 10 mM DTT, 5 mM MgCl2, 5% glycerol, 0.05% Triton-X 100, and 0.02 U/μL RNasein (Promega)], and then ATP analogs [500 μM ATP (Thermo Fischer Scientific), 100 μM 3’-dATP (TriLink), or serially diluted HMTU-TP (0.025, 0.1, 0.4 or 1.6 mM)] were added and incubated at 30°C for 10 min. Primer extension reactions were initiated by the addition of ATP, GTP, CTP and UTP (100 μM each). The reactions were performed 30°C for 2 h and stopped by the addition of quenching buffer (7M Urea, 1X TBE buffer, and 50 mM EDTA). The quenched samples were denatured at 95°C for 5 min, and the primer extension products were separated on a 15% denaturing polyacrylamide gel (Invitrogen). […] The band intensities were analyzed by ImageQuant TL version 8.2.0 (Cytiva).

DENV1 = experiment: CPE-based antiviral assay (resazurin), DENV1 in BHK-21; assay type: cell-based, Dengue virus 1; settings: Dengue virus, DENV1, BHK-21, 120 h, read-out: EC50 against DENV1
DENV2 [2] = experiment: CPE-based antiviral assay (resazurin), DENV2 in BHK-21; assay type: cell-based, Dengue virus 2; settings: Dengue virus, DENV2, BHK-21, 96 h, read-out: EC50 against DENV2
DENV3 = experiment: CPE-based antiviral assay (resazurin), DENV3 in BHK-21; assay type: cell-based, Dengue virus 3; settings: Dengue virus, DENV3, BHK-21, 120 h, read-out: EC50 against DENV3
DENV4 = experiment: CPE-based antiviral assay (resazurin), DENV4 in BHK-21; assay type: cell-based, Dengue virus 4; settings: Dengue virus, DENV4, BHK-21, 120 h, read-out: EC50 against DENV4
ZIKV = experiment: CPE-based antiviral assay (MTT), ZIKV in BHK-21; assay type: cell-based; settings: Zika virus, BHK-21, 72 h, read-out: EC50 against ZIKV
YFV = experiment: microbe, parasite or virus in culture; assay type: cell-based; settings: Yellow fever virus, BHK-21, 72 h, read-out: EC50 against YFV
JEV = experiment: CPE-based antiviral assay (MTT), JEV in BHK-21; assay type: cell-based; settings: Japanese encephalitis virus, BHK-21, 72 h, read-out: EC50 against JEV
WNV = experiment: CPE-based antiviral assay (MTT), WNV in BHK-21; assay type: cell-based; settings: West Nile virus, BHK-21, 72 h, read-out: EC50 against WNV
DENV2 [3] = experiment: MTT assay, DENV2-infected BHK-21 cells; assay type: cell-based, Dengue virus 2; settings: Dengue virus
[4] = Cytotoxicity assay in BHK-21 cells; assay type: cell-based, Hamster; settings: hamster
BHK-21 cells = experiment: Cytotoxicity assay in BHK-21 cells; assay type: cell-based, Hamster; settings: concentrations up to 20 μM
[5] = Cytotoxicity against MRC5 cells; assay type: cell-based, Human; settings: human
Experimental: (§1) The MTT (3-[4,5-dimethyl-2-thiazolyl]-2,5-diphenyl-2H-tetrazolium bromide) and resazurin reduction assays were carried out as previously described ([Nobori et al., 2018]; [Sanaki et al., 2019]). These were performed to calculate cell viability following viral induced CPE or cytotoxicity. Assay conditions for flaviviruses are as described in Table 2.

MRC5 cells = experiment: Cytotoxicity against MRC5 cells; assay type: cell-based, Human; settings: for CC50: rescreening (Table 3), read-out: CC50
Experimental: as §1

SARS-CoV-2 = experiment: qRT-PCR analysis of SARS-CoV-2 in Caco-2 cells (rescreening, supernatant viral RNA); assay type: cell-based; settings: qRT-PCR analysis using Caco-2 cells, MOI 0.1, 48 h
HCoV-OC43 = experiment: Resazurin reduction assay, HCoV-OC43-infected MRC5 cells
HCoV-229E = experiment: Resazurin reduction assay, HCoV-229E-infected MRC5 cells
rats = system: rats; parameters: method as in Lim et al., 2015; Yin et al., 2009; settings: dosed orally, preclinical, ref Lim et al., 2015, Yin et al., 2009; cited from earlier work
dogs = system: dogs; parameters: method as in Lim et al., 2015; Yin et al., 2009; settings: dosed orally, preclinical, ref Lim et al., 2015, Yin et al., 2009; cited from earlier work
[6] = rescreening (Table 3), read-out: CC50
[7] = Severe acute respiratory syndrome coronavirus 2
[8] = Betacoronavirus 1, OC43, MRC5, read-out: HCoV-OC43 EC50
[9] = MRC5 cells, resazurin reduction assay
[10] = Human coronavirus 229E, MRC5, read-out: HCoV-229E EC50
[11] = read-out: HCoV-OC43 EC50, MRC5 cells, resazurin reduction assay, rescreening of nine tubercidin derivatives
[12] = read-out: HCoV-229E EC50, MRC5 cells, resazurin reduction assay, rescreening of nine tubercidin derivatives

Recombinant ZIKV NS5 protein (ZIKV RdRp), sequence (A0A024B7W1 2521-3423): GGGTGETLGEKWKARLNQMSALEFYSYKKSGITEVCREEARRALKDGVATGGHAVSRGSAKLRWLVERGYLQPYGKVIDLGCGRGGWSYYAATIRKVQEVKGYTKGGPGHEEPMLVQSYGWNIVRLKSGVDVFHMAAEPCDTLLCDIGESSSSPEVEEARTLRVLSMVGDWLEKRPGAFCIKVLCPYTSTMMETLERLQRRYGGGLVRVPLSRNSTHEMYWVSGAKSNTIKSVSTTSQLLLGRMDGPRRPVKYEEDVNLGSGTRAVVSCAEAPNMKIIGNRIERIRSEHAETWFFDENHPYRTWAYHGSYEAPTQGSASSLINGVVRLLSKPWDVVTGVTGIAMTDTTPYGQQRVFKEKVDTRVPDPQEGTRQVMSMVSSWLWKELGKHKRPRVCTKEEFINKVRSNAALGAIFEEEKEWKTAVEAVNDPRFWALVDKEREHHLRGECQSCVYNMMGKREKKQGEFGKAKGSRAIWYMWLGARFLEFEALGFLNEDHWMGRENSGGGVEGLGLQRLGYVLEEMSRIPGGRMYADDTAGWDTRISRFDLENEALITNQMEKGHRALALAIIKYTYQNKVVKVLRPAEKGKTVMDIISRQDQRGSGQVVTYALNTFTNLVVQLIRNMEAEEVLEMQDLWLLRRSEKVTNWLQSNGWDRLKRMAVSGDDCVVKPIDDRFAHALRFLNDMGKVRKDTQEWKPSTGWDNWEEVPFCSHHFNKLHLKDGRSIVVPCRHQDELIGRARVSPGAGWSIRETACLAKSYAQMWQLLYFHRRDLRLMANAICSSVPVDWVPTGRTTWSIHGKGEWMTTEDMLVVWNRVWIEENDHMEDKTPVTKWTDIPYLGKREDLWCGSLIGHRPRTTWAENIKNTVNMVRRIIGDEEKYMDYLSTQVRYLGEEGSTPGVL

In the case of `Nc1ncnc2c1ncn2[C@@H]1O[C@H](COP(=O)(O)OP(=O)(O)OP(=O)(O)O)C[C@H]1O` [3′-dATP, 3'-Deoxyadenosine-5'-Triphosphate, reference compound], the “effect on RNA extension by ZIKV RdRp” value [1] is reported as “prevented RNA extension”.

In the case of `NC(=O)c1nc(F)c[nH]c1=O` [Favipiravir], the EC50 (DENV1) is reported as 17 µM, the EC50 (DENV2 [2]) is reported as 4.4 µM and the EC50 (DENV3) is reported as 13 µM. For the same molecule, the EC50 (DENV4) was 5.2 µM, the EC50 (ZIKV) was 40 µM and the EC50 (YFV) was 57 µM. It also gave an EC50 (JEV) of 80 µM and an EC50 (WNV) of over 100 µM.

For `Nc1ncnc2c1c(CO)cn2C1OC(COP(=O)(O)OP(=O)(O)OP(=O)(O)O)C(O)C1O` (centres unmarked) [HMTU-TP, HMTU 5′-triphosphate], the “effect on RNA extension by ZIKV RdRp” value [1] was “incorporated into RNA template, resulting in chain termination”.

With `Nc1ncnc2c1c(/C=N\O)cn2[C@@H]1O[C@H](CO)[C@@H](O)[C@H]1O` [HUP1069, 5-formyltuberucidin oxime] the EC50 (DENV2 [3]) was under 0.125 µM, the CC50 [4] was 0.18 µM and the “cytotoxicity (in words)” value (BHK-21 cells) was “high cytotoxicity”. For the same molecule, the CC50 [5, 6] was 0.74 µM, the “cytotoxicity (in words)” value (MRC5 cells) was “high cytotoxicity” and the EC90 (SARS-CoV-2; [7]) was 0.2 µM. For the same molecule, the EC50 (HCoV-OC43; [8]) was 0.055 µM, the “anti-HCoV-OC43 activity (in words)” value (HCoV-OC43; [9]) was “strong antiviral activities” and the EC50 (HCoV-229E; [10]) was under 0.078 µM. For the same molecule, the “anti-HCoV-229E activity (in words)” value (HCoV-229E; [9]) was “strong antiviral activities”.

For `Nc1c2ccn([C@@H]3O[C@H](CO)[C@@H](O)[C@H]3O)c2nc[n+]1[O-]` [HUP1077, 3-tubercidin N-oxide], the EC50 (DENV2 [3]) was 0.95 µM, the CC50 [4] was over 20 µM and the “cytotoxicity (in words)” value (BHK-21 cells) was “did not exhibit cytotoxicity”. It also gave a CC50 [5, 6] of 24 µM, an EC90 (SARS-CoV-2; [7]) of 3.5 µM and an EC50 (HCoV-OC43; [8]) of 4.3 µM. The “anti-HCoV-OC43 activity (in words)” value (HCoV-OC43; [9]) was “strong antiviral activities”, the EC50 (HCoV-229E; [10]) was 4 µM and the “anti-HCoV-229E activity (in words)” value (HCoV-229E; [9]) was “strong antiviral activities”.

In the case of `Nc1ncnc2c1c([N+](=O)[O-])cn2[C@@H]1O[C@H](CO)[C@@H](O)[C@H]1O` [HUP1078], the CC50 (MRC5 cells) is reported as 0.33 µM, the EC90 (SARS-CoV-2) is reported as 0.1 µM and the EC50 (HCoV-OC43; [11]) is reported as over 10 µM. The EC50 (HCoV-229E; [12]) was 2 µM.

`N#Cc1cn([C@@H]2O[C@H](CO)[C@@H](O)[C@H]2O)c2ncnc(N)c12` [HUP1109] showed a CC50 (MRC5 cells) of 0.59 µM, an EC90 (SARS-CoV-2) of 0.2 µM and an EC50 (HCoV-OC43; [11]) of over 10 µM. The EC50 (HCoV-229E; [12]) was 2.3 µM.

In the case of `Nc1ncnc2c1ccn2[C@@H]1O[C@H](CO)[C@@H](O)[C@H]1O` [HUP1136, tubercidin], the EC50 (DENV2 [3]) is reported as under 0.125 µM, the CC50 [4] is reported as 0.34 µM and the “cytotoxicity (in words)” value (BHK-21 cells) is reported as “high cytotoxicity”. The CC50 [5, 6] was 0.66 µM, the “cytotoxicity (in words)” value (MRC5 cells) was “high cytotoxicity” and the EC90 (SARS-CoV-2; [7]) was 0.087 µM. The EC50 (HCoV-OC43; [8]) was 0.11 µM, the “anti-HCoV-OC43 activity (in words)” value (HCoV-OC43; [9]) was “strong antiviral activities” and the EC50 (HCoV-229E; [10]) was under 0.078 µM. The “anti-HCoV-229E activity (in words)” value (HCoV-229E; [9]) was “strong antiviral activities”.

For `C#C[C@@]1(O)[C@H](O)[C@@H](CO)O[C@H]1n1ccc2c(N)ncnc21` [NITD-008, 2′-C-ethynyltubercidin], the toxicity (rats) is listed as “significant toxicity” and the toxicity (dogs) is listed as “significant toxicity”.

For `CCC(CC)COC(=O)[C@H](C)N[P@](=O)(OC[C@H]1O[C@@](C#N)(c2ccc3c(N)ncnn23)[C@H](O)[C@@H]1O)Oc1ccccc1` [Remdesivir, reference compound], the CC50 ([5]; mean from three independent experiments (Table 4), read-out: CC50 MRC5, mean) was over 50 µM, the EC50 (HCoV-OC43; Betacoronavirus 1, OC43, MRC5, read-out: HCoV-OC43 EC50, mean) was 0.229 µM and the EC50 (HCoV-229E; Human coronavirus 229E, MRC5, read-out: HCoV-229E EC50, mean) was 0.071 µM.

For `NC(=O)c1ncn([C@@H]2O[C@H](CO)[C@@H](O)[C@H]2O)n1` [Ribavirin], the EC50 (DENV2 [3]) was 28 µM, the CC50 [4] was over 400 µM and the EC50 (DENV1) was 62 µM. The EC50 (DENV2 [2]) was 19 µM, the EC50 (DENV3) was 54 µM and the EC50 (DENV4) was 86 µM. The EC50 (ZIKV) was 31 µM, the EC50 (YFV) was 34 µM and the EC50 (JEV) was 33 µM. The EC50 (WNV) was 52 µM.

Source: publication PMC8433052 (iScience, 2021)
